{
  "source": "patent US20080171706A1",
  "about": "“Anti-Adhesive Compounds to Prevent and Treat Bacterial Infections” (priority 2004, published 2008)",
  "target": "T1, FimHtrJ96 (Escherichia coli, UniProt P08191)",
  "T1 construct": "coding for the lectin domain of FimH (residues 1-158) with a C-terminal 6-histidine tag; made in house; host or cells: E. coli HB101 (lacking the fim operon), periplasmic extract, plasmid pPKL241",
  "T1 sequence (P08191 22-179)": "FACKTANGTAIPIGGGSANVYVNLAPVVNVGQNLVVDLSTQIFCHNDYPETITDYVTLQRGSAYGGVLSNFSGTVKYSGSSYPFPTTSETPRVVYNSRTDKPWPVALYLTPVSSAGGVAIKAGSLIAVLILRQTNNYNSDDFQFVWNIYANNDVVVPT",
  "experiment": "biochemical",
  "format": "binding, uropathogenic E. coli strain J96",
  "protocol": "To measure the dissociation constant for FimH:alkyl or aryl-mannoside binding, two different binding assays were developed. The first binding assay uses [^3H]-mannose. The amount of radioactively labeled mannose bound to FimHtrJ96 was measured at six different concentrations of [^3H]-mannose, and a hyperbolic curve fitted to the resulting data (FIG. 1A). FimHtrJ96 corresponds to the carbohydrate (mannose) binding domain of FimH from the uropathogenic E. coli strain J96. The dissociation equilibrium constant was determined from this graph at the concentration of mannose […], which corresponds to occupation of half of the binding sites.\nSurface Plasmon Resonance measurements were performed on a Biacore3000™. In a first experiment, the kinetic constants and maximal binding were determined for the FimH-antibody interaction. Next, a fixed concentration of FimH (close to the KD of the FimH-antibody interaction) in combination with varying concentrations of carbohydrate, were used to determine the dissociation equilibrium constant of the FimH-saccharide interaction in a competition experiment. Every measurement was repeated at least twice, including testing the variation between different protein and saccharide batches.\nTo eliminate the possibility of different binding strength for full length FimH and FimHtrJ96, the binding of alpha-D-mannose to FimC:FimH complex was also measured. […] The inhibition of [^3H]-mannose binding was used in a displacement assay to determine the dissociation constant for a synthetic butyl mannoside by measuring the amount of [^3H]-mannose bound to the protein in the presence of increasing amounts of the inhibitor (FIG. 1B). […] To investigate the effect of sequential addition of methyl groups to the O1 oxygen of D-mannose, a series of alkyl mannosides were synthesized and the dissociation constants determined using the [^3H]-mannose displacement assay and by surface plasmon resonance (Table 1).\nSurface Plasmon Resonance measurements were performed on a Biacore3000™. The Fab fragments of a monoclonal antibody against FimH were covalently immobilised via lysines at 1000 Resonance Units (1000 pg ligand/mm^2) in flowcell Fc2 on a CM5 biasensor chip (BIAapplications Handbook, Biacore AB, Uppsala, Sweden). Immobilisation buffer was 100 mM NaAc pH 5.0 with 100 mM NaCl. The reference flowcell Fc1 was left blank.\nBinding of FimH to the immobilized antibody was measured with a Biacore 3000 instrument in running buffer (phosphate buffered saline with 0.005% surfactant P20 and 3 mM EDTA), on both flowcells Fc1 and Fc2 simultaneously, at a flow rate of 30 μl/min and at 25° C. Complete dissociation of FimH was done with running buffer before starting a new binding cycle. For all measurements, the association time was 3 minutes, the dissociation time was 30 min. All binding cycles were performed in duplicate, including a zero concentration cycle of FimH (injection of running buffer).\nIn a first experiment, the kinetic constants, ka and kd, and the maximal binding Rmax, were determined for the FimH-antibody interaction (FimH concentrations (nM): 2000, 1000, 500, 250, 125, 62.5, 31.25, 15.625, 7.818, 3.911, 1.957, 0). All analyses were performed with the BIAeval software. A Langmuir binding isotherm with a 1:1 stoichiometry was fitted to the data, from which the kinetic constants and maximal binding were obtained.\nIn the next experiment, samples containing a fixed concentration of FimH (close to the KD of the FimH-antibody interaction) in combination with varying concentrations of saccharide, were used to determine the dissociation constant of the FimH-saccharide interaction in a competition experiment. First, ten-fold dilutions of the saccharide solution were used to determine the concentration range for binding of the saccharide to FimH.",
  "note": "Read-outs that look alike come from different tables or passages of the source.",
  "data": [
    {"compound": "OC[C@H]1O[C@H](O)[C@@H](O)[C@@H](O)[C@@H]1O", "note": "[Mannose, α-D-mannose]", "values": [
      {"measurement": "Kd", "result": 2300, "unit": "nM"},
      {"measurement": "Kd", "setting": "Table 1, O1 alkyl and aryl mannosides, SPR and displacement binding experiments", "result": 2300, "unit": "nM"},
      {"measurement": "ΔG°", "setting": "Table 1, calculated from KD", "result": -7.6, "unit": "kcal/mol"},
      {"measurement": "ΔG° J96", "setting": "Table 3, calculated from KD", "result": -7.6, "unit": "kcal/mol"},
      {"measurement": "Kd", "setting": "read-out: KD J96, Table 3, [3H]-mannose displacement assay (mannose measured directly)", "result": 2300, "unit": "nM"}
    ]}
  ]
}
